Data as given in patent US7951838B2, “Substituted spirocyclic chromanamine compounds as Beta-Secretase modulators and methods of use” (Amgen Inc., priority 2007, dated 2011).

Experiments:
BACE [1] = molecular target: T1, BACE (Homo sapiens, UniProt P56817); test: In vitro enzymatic BACE FRET assay (Enzyme Assay); type: biochemical; conditions: pH 4.2, enzyme 0.2 nM, FRET substrate 50 nM
T1 construct: Cells stably expressing Amyloid Precursor Protein (APP) were plated at a density of 40K cells/well in 96 well plates; endogenous in cells
T1 sequence (P56817 46-501): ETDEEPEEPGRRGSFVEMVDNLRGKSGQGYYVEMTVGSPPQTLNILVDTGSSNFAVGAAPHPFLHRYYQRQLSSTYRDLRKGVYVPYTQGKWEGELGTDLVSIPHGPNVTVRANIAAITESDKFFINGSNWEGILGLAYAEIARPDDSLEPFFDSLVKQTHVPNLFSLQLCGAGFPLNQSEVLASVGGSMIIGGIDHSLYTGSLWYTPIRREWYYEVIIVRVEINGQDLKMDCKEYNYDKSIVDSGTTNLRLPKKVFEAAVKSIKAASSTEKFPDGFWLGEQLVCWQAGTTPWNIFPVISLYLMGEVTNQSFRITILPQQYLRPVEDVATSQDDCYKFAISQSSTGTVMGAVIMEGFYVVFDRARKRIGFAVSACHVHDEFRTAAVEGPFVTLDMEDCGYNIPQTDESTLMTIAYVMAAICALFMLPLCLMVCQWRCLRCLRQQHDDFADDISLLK
Experimental: In Vitro Enzymatic BACE FRET (Fluorescence Resonance Energy Transfer) Assay (Enzyme Assay)
Assay buffer is 0.05 M acetate, pH 4.2, 10% DMSO final, 100 uM genapol (which is a nonionic detergent, below it's Critical Micelle Concentration). Enzyme (0.2 nM) is pre-incubated for one hour with inhibitors added in 1 uL of DMSO. Then the assay is started by the addition of FRET substrate (50 nM) and incubated for one hour. The FRET assay is terminated with by addition of Tris buffer, which raises the pH to neutrality, and the fluorescence is determined The FRET substrate is a peptide with commercially available fluorophore and quencher, on opposite sides of the BACE cleavage site. Proteolytic cleavage of the FRET substrate releases quenching of fluorescence (excitation 488 nm and […]).

BACE [2] = molecular target: T1, BACE; test: BACE cell-based assay (Cell Assay), inhibition of Aβ40 by sandwich ELISA; conditions: Aβ40 in conditioned medium of cells stably expressing APP, 24 h incubation
Experimental: BACE Cell-Based Assay (Cell Assay)
The cell-based assay measures inhibition or reduction of Aβ40 in conditioned medium of test compound treated cells expressing amyloid precursor protein.
Cells stably expressing Amyloid Precursor Protein (APP) were plated at a density of 40K cells/well in 96 well plates (Costar). The cells were cultivated for 24 hours at 37° C. and 5% CO2 in DMEM supplemented with 10% FBS. The test compounds were then added to cells in 10-point dose response concentrations with the starting concentration being either 100 μM or 10 μM. The compounds were diluted from stock solutions in DMSO and the final DMSO concentration of the test compounds on cells was 0.1%. After 24 h of incubation with the test compounds the supernatant conditioned media was collected and the Aβ40 levels were determined using a sandwich ELISA. The IC50 of the compound was calculated from the percent of control or percent inhibition of Aβ40 as a function of the concentration of the test compound.
The sandwich ELISA to detect Aβ40 was performed in 96 well microtiter plates, which were pre-treated with goat anti-rabbit IgG (Pierce). The capture and detecting antibody pair that were used to detect Aβ40 from cell supernatants were affinity purified pAb40 (Biosource) and biotinylated 6E10 (Signet Labs Inc.), respectively. The optimal concentration for the pAb40 antibody was 3 μg/ml in Superblock/TBS (Pierce) that was supplemented with 0.05% Tween 20 (Sigma). Optimal concentration for the detection antibody 6E10-biotinylated was 0.5 μg/ml in Superblock/TBS (Pierce) that had been supplemented with 2% normal goat serum and 2% normal mouse serum.
Cellular supernatants were incubated with the capture antibody for 3 h at 4° C., followed by 3 wash steps in TBS-tween (0.05%). The detecting antibody incubation was for 2 h at 4° C., again followed by the wash steps as described previously. The final readout of the ELISA is Time-Resolved Fluorescence (counts per minute) using Delfia reagents Streptavidin-Europium and Enhancement solutions (Perkin Elmer) and the Victor 2 multilabel counter (Perkin Elmer).

| IC50 (BACE [1]) [µM] | IC50 (BACE [2]) [µM] | SMILES |
| --- | --- | --- |
| 1 to 5 | 10 to 25 | CC(C)(C)Cc1cnc2c(c1)[C@@H](NC[C@@H](O)[C@H](Cc1ccc(F)cc1)Nc1ccnc(Cl)n1)CC1(CCC1)O2 [Example 29, (2R,3S)-3-((2-chloro-4-pyrimidinyl)amino)-1-(((4′S)-6′-(2,2-dimethylpropyl)-3′,4′-dihydrospiro[cyclobutane-1,2′-pyrano[2,3-b]pyridin]-4′-yl)amino)-4-(4-fluorophenyl)-2-butanol] |
| 10 to 25 | 10 to 25 | CCc1ccc2c(c1)[C@@H](NC[C@@H](O)[C@H](Cc1ccccc1)Nc1cccnc1)CC1(CCC1)O2 [Example 43, (2R,3S)-1-(((4S)-6-ethyl-3,4-dihydrospiro[chromene-2,1′-cyclobutan]-4-yl)amino)-4-phenyl-3-(3-pyridinylamino)-2-butanol] |
| 1 to 5 | 10 to 25 | CC(C)(C)Cc1cnc2c(c1)[C@@H](NC[C@@H](O)[C@H](Cc1cc(F)cc(F)c1)Nc1ccccc1F)CC1(CCC1)O2 [Example 26, (2R,3S)-4-(3,5-difluorophenyl)-1-(((4′S)-6′-(2,2-dimethylpropyl)-3′,4′-dihydrospiro[cyclobutane-1,2′-pyrano[2,3-b]pyridin]-4′-yl)amino)-3-((2-fluorophenyl)amino)-2-butanol] |
| 10 to 25 | 0.1 to 1 | CC(C)(C)Cc1cnc2c(c1)[C@@H](NC[C@@H](O)[C@H](Cc1ccc(F)cc1)Nc1ncnc3sccc13)CC1(CCC1)O2 [Example 35, (2R,3S)-1-(((4′S)-6′-(2,2-dimethylpropyl)-3′,4′-dihydrospiro[cyclobutane-1,2′-pyrano[2,3-b]pyridin]-4′-yl)amino)-4-(4-fluorophenyl)-3-(thieno[2,3-d]pyrimidin-4-ylamino)-2-butanol] |
